From patent publication US9670227B2, “Thienopyrimidine derivatives, a process for their preparation and pharmaceutical compositions containing them” (LES LABORATOIRES SERVIER, priority 2013, dated 2017)
Read-outs that look alike come from different tables or passages of the source.

Experiments:
Mcl-1 protein = Mcl-1 protein (UniProtKB primary accession number: Q07820) (Homo sapiens, UniProt Q07820); experiment: Inhibition of Mcl-1 by fluorescence polarisation, Method 1; format: binding; details: read-out: IC50 (M) Mcl-1 FP
Outline: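 Buffer of 10 mM HEPES pH 7.4 with 150 mM NaCl and 0.05% Tween 20 held 5 nM Mcl-1 and 1 nM fluorescein-tagged ligand (final). Compounds were tested as 11-point serial dilutions at 5% final DMSO, and binding was read by FP.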

[1] = test system: H929 multiple myeloma tumour line; experiment: In vitro cytotoxicity, Microculture Tetrazolium Assay; format: cell-based; details: H929 cells, 48 hours exposure, read-out: IC50 (μM) MTT H929
Experimental: The cytotoxicity studies were carried out on the H929 multiple myeloma tumour line.
The cells are distributed onto microplates and exposed to the test compounds for 48 hours.

[2] = fluorescence polarisation test, Method 2 values are underlined in the patent (underlining not visible here)
[3] = Homo sapiens, NCI-H929, 48 h, MTT
[4] = fluorescence polarisation, Method 1, or Method 2

Sequence of Mcl-1 protein (Q07820 whole entry): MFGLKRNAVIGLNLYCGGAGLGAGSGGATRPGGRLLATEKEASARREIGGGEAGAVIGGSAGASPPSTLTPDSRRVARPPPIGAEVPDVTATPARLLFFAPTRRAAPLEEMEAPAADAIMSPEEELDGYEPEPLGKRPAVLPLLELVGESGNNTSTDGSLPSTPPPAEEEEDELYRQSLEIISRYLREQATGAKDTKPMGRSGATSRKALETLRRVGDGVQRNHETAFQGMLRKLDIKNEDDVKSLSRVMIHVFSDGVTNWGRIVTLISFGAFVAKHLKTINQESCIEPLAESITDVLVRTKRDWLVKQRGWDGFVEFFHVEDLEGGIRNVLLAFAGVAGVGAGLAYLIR

Structure (SMILES) | IC50 (Mcl-1 protein; [2]) | IC50 [1, 3] | IC50 (Mcl-1 protein; [4]) | further results
COCCCn1nncc1COc1ccccc1CC(Oc1ncnc2sc(-c3ccc(F)cc3)c(-c3ccc(OCCN4CCN(C)CC4)c(Cl)c3C)c12)C(=O)O [Example 96, (2R)-2-{[(5Sa)-5-{3-chloro-2-methyl-4-[2-(4-methylpiperazin-1-yl)ethoxy]phenyl}-6-(4-fluorophenyl)thieno[2,3-d]pyrimidin-4-yl]oxy}-3-(2-{[1-(3-methoxypropyl)-1H-1,2,3-triazol-5-yl]methoxy}phenyl)propanoic acid] | 3.8e-09 M | 0.034 µM |  | 
Cc1c(-c2c(-c3ccc(F)cc3)sc3ncnc(OC(Cc4ccccc4OCc4cnccn4)C(=O)O)c23)ccc(OC2CCCN(C)C2)c1Cl (single isomer, unassigned) [Example 142, (2R)-2-{[(5Sa)-5-{3-chloro-2-methyl-4-[((3R or S)-1-methylpiperidin-3-yl)oxy]phenyl}-6-(4-fluorophenyl)thieno[2,3-d]pyrimidin-4-yl]oxy}-3-[2-(pyrazin-2-ylmethoxy)phenyl]propanoic acid] | 4.2e-08 M |  |  | IC50 ([1]; MTT): 1.67 µM
COCCN(C)c1nccc(COc2ccccc2CC(Oc2ncnc3sc(-c4ccc(F)cc4)c(-c4ccc(OCCN5CCN(C)CC5)c(Cl)c4C)c23)C(=O)O)n1 [Example 48, (2R)-2-{[(5Sa)-5-{3-chloro-2-methyl-4-[2-(4-methylpiperazin-1-yl)ethoxy]phenyl}-6-(4-fluorophenyl)thieno[2,3-d]pyrimidin-4-yl]oxy}-3-[2-({2-[(2-methoxyethyl)(methyl)amino]pyrimidin-4-yl}methoxy)phenyl]propanoic acid] | 1.1e-08 M | 0.122 µM |  | 
CC#Cc1sc2ncnc(OC(Cc3ccccc3OC)C(=O)O)c2c1-c1ccc(OCCN2CCCCC2)c(Cl)c1C [Example 469, (2R)-2-{[(5Sa)-5-{3-chloro-2-methyl-4-[2-(piperidin-1-yl)ethoxy]phenyl}-6-(prop-1-yn-1-yl)thieno[2,3-d]pyrimidin-4-yl]oxy}-3-(2-methoxyphenyl)propanoic acid] |  | 3.06 µM | 1.5e-08 M | 
COc1cc(F)ccc1CC(Oc1ncnc2sc(-c3ccco3)c(-c3ccc(OCCN4CCN(C)CC4)c(Cl)c3C)c12)C(=O)O [Example 346, (2R)-2-{[(5Sa)-5-{3-chloro-2-methyl-4-[2-(4-methylpiperazin-1-yl)ethoxy]phenyl}-6-(furan-2-yl)thieno[2,3-d]pyrimidin-4-yl]oxy}-3-(4-fluoro-2-methoxyphenyl)propanoic acid] | 1.7e-08 M | 0.063 µM |  | 
Cc1c(-c2c(-c3ccc(F)cc3)sc3ncnc(O[C@H](Cc4ccccc4OCc4cnccn4)C(=O)O)c23)ccc(OCC2CCCCN(C)C2)c1Cl (stereo partly drawn) [Example 144, (2R)-2-{[(5Sa)-5-{3-chloro-2-methyl-4-[(1-methylazepan-3-yl)methoxy]phenyl}-6-(4-fluorophenyl)thieno[2,3-d]pyrimidin-4-yl]oxy}-3-[2-(pyrazin-2-ylmethoxy)phenyl]propanoic acid] | 1.6e-08 M |  |  | IC50 ([1]; MTT): 1.6 µM
CCCCn1nccc1COc1ccccc1CC(Oc1ncnc2sc(-c3ccc(OC)nc3)c(-c3ccc(OCCN4CCN(C)CC4)c(Cl)c3C)c12)C(=O)O [Example 608, (2R)-3-{2-[(1-butyl-1H-pyrazol-5-yl)methoxy]phenyl}-2-{[(5Sa)-5-{3-chloro-2-methyl-4-[2-(4-methylpiperazin-1-yl)ethoxy]phenyl}-6-(6-methoxypyridin-3-yl)thieno[2,3-d]pyrimidin-4-yl]oxy}propanoic acid] |  | 0.021 µM | 4.2e-09 M | 
Cc1c(-c2c(-c3cc4ccccc4s3)sc3ncnc(OC(Cc4ccccc4)C(=O)O)c23)ccc(OCCN2CCN(C)CC2)c1Cl [Example 497, (2R)-2-{[6-(1-benzothiophen-2-yl)-(5Sa)-5-{3-chloro-2-methyl-4-[2-(4-methylpiperazin-1-yl)ethoxy]phenyl}thieno[2,3-d]pyrimidin-4-yl]oxy}-3-phenylpropanoic acid] |  | 5.95 µM | 9.1e-07 M | 
COc1ccccc1CC(Oc1ncnc2sc(-c3cnco3)c(-c3ccc(OCCN4CCN(C)CC4)c(Cl)c3C)c12)C(=O)O [Example 569, (2R)-2-{[(5Sa)-5-{3-chloro-2-methyl-4-[2-(4-methylpiperazin-1-yl)ethoxy]phenyl}-6-(1,3-oxazol-5-yl)thieno[2,3-d]pyrimidin-4-yl]oxy}-3-(2-methoxyphenyl)propanoic acid] |  | 1.73 µM | 3.9e-08 M | 
Cc1c(-c2c(-c3ccc(Cl)o3)sc3ncnc(OC(Cc4ccccc4OCc4ccnc(N5CCOCC5)n4)C(=O)O)c23)ccc(OCCN2CCN(C)CC2)c1Cl [Example 368, (2R)-2-{[6-(5-chlorofuran-2-yl)-(5Sa)-5-{3-chloro-2-methyl-4-[2-(4-methylpiperazin-1-yl)ethoxy]phenyl}thieno[2,3-d]pyrimidin-4-yl]oxy}-3-(2-{[2-(morpholin-4-yl)pyrimidin-4-yl]methoxy}phenyl)propanoic acid] | 1.4e-08 M | 0.005 µM |  | 
Cc1cccc(C[C@@H](Oc2ncnc3sc(-c4ccco4)c(-c4ccc(OCCN5CCN(C)CC5)c(Cl)c4C)c23)C(=O)O)c1 [Example 347, (2R)-2-{[(5Sa)-5-{3-chloro-2-methyl-4-[2-(4-methylpiperazin-1-yl)ethoxy]phenyl}-6-(furan-2-yl)thieno[2,3-d]pyrimidin-4-yl]oxy}-3-(3-methylphenyl)propanoic acid] | 1.4e-08 M |  |  | IC50 ([1]; MTT): 0.25 µM
CCCCn1nccc1COc1ccccc1CC(Oc1ncnc2sc(-c3ccc(OCC)cc3)c(-c3ccc(OCCN4CCN(C)CC4)c(Cl)c3C)c12)C(=O)O [Example 604, (2R)-3-{2-[(1-butyl-1H-pyrazol-5-yl)methoxy]phenyl}-2-{[(5Sa)-5-{3-chloro-2-methyl-4-[2-(4-methylpiperazin-1-yl)ethoxy]phenyl}-6-(4-ethoxyphenyl)thieno[2,3-d]pyrimidin-4-yl]oxy}propanoic acid] |  | 0.064 µM | 5.7e-09 M | 
COc1ccc(-c2nccc(COc3ccccc3CC(Oc3ncnc4sc(-c5ccc(F)cc5)c(-c5ccc(OCCN6CCN(C)CC6)c(Cl)c5C)c34)C(=O)O)n2)c(OC)c1 [Example 733, (2R)-2-{[(5Sa)-5-{3-chloro-2-methyl-4-[2-(4-methylpiperazin-1-yl)ethoxy]phenyl}-6-(4-fluorophenyl)thieno[2,3-d]pyrimidin-4-yl]oxy}-3-(2-{[2-(2,4-dimethoxyphenyl)pyrimidin-4-yl]methoxy}phenyl)propanoic acid] |  | 0.005 µM | 9.48e-10 M | 
Cc1c(-c2c(-c3ccco3)sc3ncnc(OC(Cc4ccccc4OCc4cccc(N5CCCC5)n4)C(=O)O)c23)ccc(OCCN2CCN(C)CC2)c1Cl [Example 237, (2R)-2-{[(5Sa)-5-{3-chloro-2-methyl-4-[2-(4-methylpiperazin-1-yl)ethoxy]phenyl}-6-(furan-2-yl)thieno[2,3-d]pyrimidin-4-yl]oxy}-3-(2-{[6-(pyrrolidin-1-yl)pyridin-2-yl]methoxy}phenyl)propanoic acid] | 1.5e-08 M | 0.186 µM |  | 
COc1nccc(COc2ccccc2CC(Oc2ncnc3sc(-c4ccc(F)c(O)c4)c(-c4ccc(OCCN5CCN(C)CC5)c(Cl)c4C)c23)C(=O)O)n1 [Example 595, (2R)-2-{[(5Sa)-5-{3-chloro-2-methyl-4-[2-(4-methylpiperazin-1-yl)ethoxy]phenyl}-6-(4-fluoro-3-hydroxyphenyl)thieno[2,3-d]pyrimidin-4-yl]oxy}-3-{2-[(2-methoxypyrimidin-4-yl)methoxy]phenyl}propanoic acid] |  | 0.114 µM | 6.2e-09 M | 
CCc1sc2ncnc(OC(Cc3ccccc3)C(=O)O)c2c1-c1ccc(OCCn2ccnc2)c(Cl)c1C [Example 418, (2R)-2-[((5Sa)-5-{3-chloro-4-[2-(1H-imidazol-1-yl)ethoxy]-2-methylphenyl}-6-ethylthieno[2,3-d]pyrimidin-4-yl)oxy]-3-phenylpropanoic acid] |  | 13.3 µM | 5.6e-08 M | 
COc1ccccc1-c1nccc(COc2ccccc2C[C@@H](Oc2ncnc3sc(-c4ccc(F)cc4)c(-c4ccc(OCCN5CCN(C)CC5)c(Cl)c4OC)c23)C(=O)O)n1 [Example 837, (2R)-2-{[5-{3-chloro-2-methoxy-4-[2-(4-methylpiperazin-1-yl)ethoxy]phenyl}-6-(4-fluorophenyl)thieno[2,3-d]pyrimidin-4-yl]oxy}-3-(2-{[2-(2-methoxyphenyl)pyrimidin-4-yl]methoxy}phenyl)propanoic acid] |  |  |  | IC50 (Mcl-1 protein; fluorescence polarisation test, Method 1, or Method 2 where the value is underlined (underlining not visible)): 2.35e-09 M; IC50 ([1]; Homo sapiens, NCI-H929, 48 h, cell viability): 0.003 µM
Cc1c(-c2c(-c3ccc(F)o3)sc3ncnc(OC(Cc4ccccc4OCc4ccnn4CC(F)(F)F)C(=O)O)c23)ccc(OCCN(C)C)c1Cl [Example 205, (2R)-2-{[(5Sa)-5-{3-chloro-4-[2-(dimethylamino)ethoxy]-2-methylphenyl}-6-(5-fluorofuran-2-yl)thieno[2,3-d]pyrimidin-4-yl]oxy}-3-(2-{[1-(2,2,2-trifluoroethyl)-1H-pyrazol-5-yl]methoxy}phenyl)propanoic acid] | 3.8e-09 M | 0.028 µM |  | 
COc1ccccc1-c1nccc(COc2ccccc2CC(Oc2ncnc3sc(C#CCCCc4ccccc4)c(-c4ccc(OCCN5CCN(C)CC5)c(Cl)c4C)c23)C(=O)O)n1 [Example 783, (2R)-2-{[(5Sa)-5-{3-chloro-2-methyl-4-[2-(4-methylpiperazin-1-yl)ethoxy]phenyl}-6-(5-phenylpent-1-yn-1-yl)thieno[2,3-d]pyrimidin-4-yl]oxy}-3-(2-{[2-(2-methoxyphenyl)pyrimidin-4-yl]methoxy}phenyl)propanoic acid] |  | 0.037 µM | 1.06e-09 M | 
